The values below come from patent publication US20190106498A1, “TREATMENT FOR ACUTE MYELOID LEUKEMIA” (priority 2017, published 2019).

The subject of one experiment is LSCs. Put plainly: CD70 expression on LSCs of AML patients treated with HMA. Format: in vivo, human. To be noted: newly diagnosed AML patients after HMA treatment.
A further experiment relates to AML. To be noted: aza alone; cited from earlier work.

Experimental for LSCs: (FIG. 2A) Representative FACS plots of CD70 expression on lin-CD90+CD34+CD38− AML stem/progenitor cells after culture in the presence or absence of 0.5 mM decitabine (D) or vehicle (Veh). Isotype: grey; CD70: black. (FIG. 2B) Cell Viability. (FIG. 2C) Fold change ΔMFI CD70 and (FIG. 2D) mRNA CD70 expression (AML: n=9-15; healthy: n=3). (FIG. 2E) Representative FACS plot and (FIG. 2F) fold change ΔMFI CD70 on stem/progenitor cells in the peripheral blood of AML patients at diagnosis and after 1 cycle of decitabine or azacitidine treatment (D(5), 20 mg/kg, daily for 5 days; A(7), 75 mg/m^2, daily for 7 days).

Regarding `Nc1ncn([C@@H]2O[C@H](CO)[C@@H](O)[C@H]2O)c(=O)n1` [azacitidine], the “CD70 expression on LSCs compared to level at diagnosis” value in the experiment with LSCs was “increase in CD70 expression”. Also, the response rate result with AML is on record as “approximately 25%”.
